According to PubChem BioAssay (NCI):
Values joined by “and” are separate entries in the source; they are usually repeats but may differ in a detail not shown here. Equal values may be shown once.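 1) Cells in 96-well plates. 2) Compound, 48 h, 5 concentrations. 3) Linear interpolation between surrounding doses. 4) Unreached endpoint = highest concentration. Abbreviation: GI50, concentration required for 50% inhibition of growth. TGI: total growth inhibition.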 Where a SMILES comes first, the peptide text is derived from it. Bridges are numbered along the chain shown (N, C = ends). [ ]: non-standard residue; d: D form. aThr = C[C@H](O)[C@H](N)C(=O)O

Key:
Assay in all cases: growth of human tumour cells (NCI), 48 h
ACHN renal = tested on: ACHN renal
KM12 colon = tested on: KM12 colon
SF-295 CNS = tested on: SF-295 CNS
SK-MEL-2 melanoma = tested on: SK-MEL-2 melanoma
SF-268 CNS = tested on: SF-268 CNS
UACC-62 melanoma = tested on: UACC-62 melanoma
EKVX NSCLC = tested on: EKVX NSCLC
K-562 leukemia = tested on: K-562 leukemia
A498 renal = tested on: A498 renal
SNB-75 CNS = tested on: SNB-75 CNS

| Compound | TGI (ACHN renal) | TGI (KM12 colon) | TGI (SF-295 CNS) | TGI (SK-MEL-2 melanoma) | TGI (SF-268 CNS) | TGI (UACC-62 melanoma) | TGI (EKVX NSCLC) | TGI (K-562 leukemia) | TGI (A498 renal) | TGI (SNB-75 CNS) | GI50 (ACHN renal) | GI50 (KM12 colon) | GI50 (SF-295 CNS) | GI50 (SK-MEL-2 melanoma) | GI50 (SF-268 CNS) | GI50 (UACC-62 melanoma) | GI50 (K-562 leukemia) | GI50 (SNB-75 CNS) | GI50 (A498 renal) | GI50 (EKVX NSCLC) |
| --- | --- | --- | --- | --- | --- | --- | --- | --- | --- | --- | --- | --- | --- | --- | --- | --- | --- | --- | --- | --- |
| N#Cc1ccc(Sc2nc3ccccc3[nH]2)cc1 | > 100 µM | > 100 µM | > 100 µM | > 100 µM | > 100 µM | > 100 µM | > 100 µM | > 100 µM |  |  |  |  |  |  |  |  |  |  |  |  |
| CCOC(=O)C1(C)CCC(C(C(=O)O)C(=O)O)CC1=O (configuration not stated) | > 100 µM | > 100 µM | > 100 µM |  | > 100 µM | > 100 µM | > 100 µM |  | > 100 µM | > 100 µM |  |  |  |  |  |  |  |  |  |  |
| COc1cc(-c2nccc3[nH]c(-c4ccc5cc[nH]c5c4)nc23)cc(OC)c1OC | 3.02 µM | 1.5 µM | < 0.01 µM | 3.06 µM | 3.21 µM | 2.57 µM |  | 2.28 µM |  | 6.6 µM | < 0.01 µM | < 0.01 µM | < 0.01 µM | < 0.01 µM | < 0.01 µM | < 0.01 µM | < 0.01 µM | < 0.01 µM |  |  |
| COc1ccccc1CNCCN1C(=O)c2ccc3c4c(ccc(c24)C1=O)C(=O)N(CCNCc1ccccc1OC)C3=O | 1.24 µM | 0.35 µM |  | 2.24 µM | 1.12 µM | 3.39 µM |  | 1.09 µM | 2.92 µM | 2.83 µM | 0.39 µM | 0.165 µM |  | 0.712 µM | 0.269 µM | 1.77 µM | 0.234 µM | 1.4 µM | 1.49 µM |  |
| COCCN(CCOC)c1nc(-c2ccccc2)nc2ccccc12 |  | 47.2 µM | > 100 µM | 44.6 µM | 62.4 µM | 34.9 µM | > 100 µM | > 100 µM | 89.7 µM |  |  | 18.6 µM | 30.9 µM | 19.2 µM | 19.7 µM | 18.2 µM | 36.1 µM |  | 30.1 µM | 38.8 µM |
| Cc1cccc(Cn2cc(CO)c3cnccc32)c1 | > 100 µM | > 100 µM | 76.7 µM | > 100 µM | > 100 µM | > 100 µM | > 100 µM |  | 26.7 µM | > 100 µM | > 100 µM | 85.6 µM | 12.4 µM | > 100 µM | > 100 µM | 75.4 µM |  | 69.4 µM | 10 µM | 20.9 µM |
| COCCOC1=C(Cl)C(=O)c2ccccc2C1=O | 3.59 µM | 4.23 µM | 15.9 µM | 9.35 µM | 9.32 µM | 5.1 µM | 15.8 µM |  | 18.2 µM | 10.1 µM | 1.88 µM | 2.11 µM | 4.42 µM | 2.71 µM | 2.24 µM | 1.89 µM |  | 2.75 µM | 4.35 µM | 3.51 µM |
| CC(C)C[C@@H]1NC(=O)[C@@H]2CCCN2C(=O)[C@@H]2CCCN2C(=O)[C@H](CC(C)C)NC(=O)[C@H](CO)NC(=O)[C@H](CCCCN)NC(=O)[C@H]([C@H](C)O)NC(=O)[C@@H]2CSSC[C@@H](NC1=O)C(=O)N[C@@H](Cc1ccccc1)C(=O)N1CCC[C@H]1C(=O)N[C@@H](CC(=O)O)C(=O)NCC(=O)N[C@@H](CCCN=C(N)N)C(=O)N2 (cyclo(C[aThr]KSLPPL[dC]FPDGR); disulfide 1-9) | > 50 µM | > 50 µM | > 50 µM | > 50 µM | > 50 µM | > 50 µM | > 50 µM | > 50 µM | 33.5 µM |  | > 50 µM | > 50 µM | > 50 µM | > 50 µM | > 50 µM | > 50 µM | > 50 µM |  | 13.2 µM | > 50 µM |
| COc1cc(OC)c(OC)cc1/C=C/c1nc2ccccc2s1 | > 100 µM | > 100 µM | > 100 µM | > 100 µM | > 100 µM |  | > 100 µM |  | > 100 µM | > 100 µM |  |  |  |  |  |  |  |  |  |  |
| COc1ccc(-c2cc(/C=C/C(=O)c3ccc(N)cc3)[nH]n2)cc1OC | 3.29 µM | 3.35 µM | 15.2 µM | 22.2 µM | 4.4 µM | 10.9 µM |  | 36.4 µM | 7.09 µM | 14.2 µM | 1.67 µM | 1.68 µM | 3.58 µM | 8.44 µM | 1.89 µM | 3.11 µM | 2.03 µM | 2.74 µM | 2.37 µM |  |
| COc1cc(/C=C/c2csnn2)cc(OC)c1OC | > 100 µM | > 100 µM | > 100 µM | > 100 µM | > 100 µM | > 100 µM | > 100 µM | > 100 µM |  |  |  |  |  |  |  |  |  |  |  |  |
| Cc1ccc(NC(=O)c2cc(S(=O)(=O)Nc3nnc(-c4ccccc4)c(-c4ccccc4)n3)c(SCc3ccccc3)cc2Cl)cc1 | 31.3 µM | 50.7 µM | 42.2 µM | > 100 µM | 84.5 µM | 31.2 µM | 37.6 µM | > 100 µM |  |  | 17 µM | 21.5 µM | 19.4 µM | 49 µM | 20.2 µM | 16.3 µM | 23.8 µM |  |  | 18 µM |
| O=C(c1cccs1)c1c(C(F)(F)F)n([O-])c2cc(Cl)c(Cl)cc2[n+]1=O | 0.853 µM | 1.08 µM | 1.32 µM | > 100 µM | 2.45 µM | 2.54 µM | 4.04 µM | 17.4 µM | 2.61 µM |  | 0.423 µM | 0.517 µM | 0.51 µM | 2.7 µM | 1.03 µM | 1.18 µM | 0.344 µM |  | 1.27 µM | 2.11 µM |
| CCCC(=O)CC(C)C(=O)C(=O)NC12CC3CC(CC(C3)C1)C2 (configuration not stated) | > 100 µM | > 100 µM | > 100 µM | > 100 µM | > 100 µM |  | > 100 µM | > 100 µM |  | > 100 µM |  |  |  |  |  |  |  |  |  |  |
| COC12C(COC(=O)NCCO)C3=C(C(=O)C(C)=C(N)C3=O)N1CC1NC12 (configuration not stated) | 142 µM | 177 µM | > 264 µM | 79.9 µM and 75.5 µM | 217 µM | 49.9 µM | > 264 µM | > 264 µM | 122 µM |  | 13.3 µM | 61.7 µM | 24.3 µM |  | 32.9 µM |  |  |  |  |  |
